Earlier results on 60 compounds are cited in patent publication US20240117436A1, “METHODS OF TREATING LIPEDEMA INCLUDING AKR1C2 AS A THERAPEUTIC TARGET” (MAGI EUREGIO SCS, priority 2021, published 2024).

Where two headings read alike, the source gives them in different places.

The target of series [1] is T1, AKR1C1 (Homo sapiens, UniProt Q04828).
T1 sequence (Q04828 1-323): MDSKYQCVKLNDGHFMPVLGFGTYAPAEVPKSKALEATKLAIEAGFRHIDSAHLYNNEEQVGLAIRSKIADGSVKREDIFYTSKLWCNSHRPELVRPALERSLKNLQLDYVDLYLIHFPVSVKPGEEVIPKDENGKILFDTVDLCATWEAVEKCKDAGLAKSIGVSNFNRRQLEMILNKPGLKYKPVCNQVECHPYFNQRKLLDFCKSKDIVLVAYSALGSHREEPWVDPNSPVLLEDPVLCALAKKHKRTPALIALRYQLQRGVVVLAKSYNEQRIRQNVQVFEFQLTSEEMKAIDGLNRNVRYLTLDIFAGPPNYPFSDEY
Particulars: for kind of AKR1C1 inhibition: literature statements in the text.

In series [2] the target is AKR enzymes. Particulars: mid-nanomolar value; read-out: affinity of cofactor in binding AKR enzymes.
Series [3] relates to PGE2 and PGF2α levels. As to conditions: literature.
The mark [4] stands for this setting: AKR1C1, known from the literature.

Turning to `COC1=C(OC)C(=O)c2ccccc2C1=O` [2,3-Dimethoxynaphthalene-1,4-Dione, 2,3-dimethoxynaphthalene-1,4-dione], the “Enzyme activity (inhibition/activation)” value in series [1] (setting [4]) is recorded as “activation”. Regarding `O=C(O)c1cc(I)cc(I)c1O` [3,5-Diiodosalicylic Acid], in series [1] (setting [4]), the “Enzyme activity (inhibition/activation)” value is recorded as “inhibition”.

In the case of `O=c1c(O)c(-c2ccccc2)oc2cc(O)ccc12` [3,7-Dihydroxyflavone], in series [1] (setting [4]), the “Enzyme activity (inhibition/activation)” value was “inhibition”.

As for `O=c1c(O)c(-c2ccccc2)oc2ccccc12` [3-Hydroxyflavone], the “Enzyme activity (inhibition/activation)” value in series [1] (setting [4]) is reported as “inhibition”. For the compound `O=C(O)c1cccc(Oc2ccccc2)c1` [3-Phenoxybenzoic Acid], the “Enzyme activity (inhibition/activation)” value in series [1] (setting [4]) was “inhibition”.

In the case of `O=c1cc(-c2ccccc2)oc2cccc(O)c12` [5-Hydroxyflavone], the “Enzyme activity (inhibition/activation)” value in series [1] (setting [4]) was “inhibition”. For `COc1cccc2oc(-c3ccccc3)cc(=O)c12` [5-Methoxyflavone], the “Enzyme activity (inhibition/activation)” value in series [1] (setting [4]) is listed as “inhibition”. Take `O=c1cc(-c2ccccc2)oc2cc(O)ccc12` [7-Hydroxyflavone]: the “Enzyme activity (inhibition/activation)” value in series [1] (setting [4]) is on record as “inhibition”. As to `C[C@H](O)[C@H]1CC[C@H]2[C@@H]3C=CC4=CC(=O)CC[C@@]4(C)[C@@H]3CC[C@]12C` [20α-Hydroxydydrogesterone], the “Enzyme activity (inhibition/activation)” value in series [1] (setting [4]) was “inhibition”. As for `CC(C)C1=CC2=CC[C@@H]3[C@](C)(CCC[C@@]3(C)C(=O)O)[C@H]2CC1` [Abietic Acid], the “Enzyme activity (inhibition/activation)” value in series [1] (setting [4]) is “inhibition”. In the case of `CC(=O)Oc1ccccc1C(=O)O` [Acetylsalicylic Acid], the “Enzyme activity (inhibition/activation)” value in series [1] (setting [4]) was “inhibition”. `O=c1cc(-c2ccc(O)cc2)oc2cc(O)cc(O)c12` [Apigenin]: the “Enzyme activity (inhibition/activation)” value in series [1] (setting [4]) is recorded as “inhibition”. `COc1ccc(-c2coc3cc(O)cc(O)c3c2=O)cc1` [Biochanin A]: in series [1] (setting [4]), the “Enzyme activity (inhibition/activation)” value is reported as “inhibition”. In the case of `O=C1CN=C(c2ccccn2)c2cc(Br)ccc2N1` [Bromazepam], the “Enzyme activity (inhibition/activation)” value in series [1] is “inhibition”. As to `O=c1cc(-c2ccccc2)oc2cc(O)cc(O)c12` [Chrysin, 5,7-Dihydroxyflavone], the “Enzyme activity (inhibition/activation)” value in series [1] (setting [4]) is on record as “inhibition”. For the compound `O=C1CN2CCOC2(c2ccccc2Cl)c2cc(Cl)ccc2N1` (centres unmarked) [Cloxazolam], the “Enzyme activity (inhibition/activation)” value in series [1] is on record as “inhibition”. For `O=c1ccc2ccccc2o1` [Coumarin], in series [1] (setting [4]), the “Enzyme activity (inhibition/activation)” value is given as “inhibition”. With `O=c1oc2cc(O)ccc2c2oc3cc(O)ccc3c12` [Coumestrol], in series [1] (setting [4]), the “Enzyme activity (inhibition/activation)” value is on record as “inhibition”. On to `O=C1CCCC1` [Cyclopentanone], for which the “Enzyme activity (inhibition/activation)” value in series [1] (setting [4]) is listed as “inhibition”. For the compound `O=c1c(-c2ccc(O)cc2)coc2cc(O)ccc12` [Daidzein], the “Enzyme activity (inhibition/activation)” value in series [1] (setting [4]) was “inhibition”. Turning to `CN1C(=O)CN=C(c2ccccc2)c2cc(Cl)ccc21` [Diazepam], the “Enzyme activity (inhibition/activation)” value in series [1] is listed as “inhibition”. With `O=C(O)Cc1ccccc1Nc1c(Cl)cccc1Cl` [Diclofenac], in series [1] (setting [4]), the “Enzyme activity (inhibition/activation)” value is “inhibition”.

On to `CC/C(=C(/CC)c1ccc(O)cc1)c1ccc(O)cc1` [Diethylstilbestrol], for which the “Enzyme activity (inhibition/activation)” value in series [1] (setting [4]) is “inhibition”. As for `CC(=O)[C@H]1CC[C@H]2[C@@H]3C=CC4=CC(=O)CC[C@@]4(C)[C@@H]3CC[C@]12C` [Dydrogesterone], the “Enzyme activity (inhibition/activation)” value in series [1] (setting [4]) is “inhibition”.

`C[C@]12CC[C@H]3C(=CCc4cc(O)ccc43)[C@@H]1CCC2=O` [Equilin]: the “Enzyme activity (inhibition/activation)” value in series [1] (setting [4]) is recorded as “inhibition”.

On to `Clc1ccc2c(c1)C(c1ccccc1)=NCc1nncn1-2` [Estazolam], for which, in series [1] (setting [4]), the “Enzyme activity (inhibition/activation)” value is on record as “inhibition”. As for `C=C(CC)C(=O)c1ccc(OCC(=O)O)c(Cl)c1Cl` [Ethacrynic Acid], the “Enzyme activity (inhibition/activation)” value in series [1] (setting [4]) is “activation”. In the case of `CCc1cccc2c3c([nH]c12)C(CC)(CC(=O)O)OCC3` (centres unmarked) [Etodolac], the “Enzyme activity (inhibition/activation)” value in series [1] (setting [4]) is recorded as “inhibition”.

For `O=C1CC(c2ccccc2)Oc2ccccc21` (centres unmarked) [Flavanone], the “Enzyme activity (inhibition/activation)” value in series [1] (setting [4]) is on record as “inhibition”. With `O=c1cc(-c2ccccc2)oc2ccccc12` [Flavone], the “Enzyme activity (inhibition/activation)” value in series [1] (setting [4]) is recorded as “inhibition”.

As to `CN1C(=O)CN=C(c2ccccc2F)c2cc([N+](=O)[O-])ccc21` [Flunitrazepam], the “Enzyme activity (inhibition/activation)” value in series [1] was “inhibition”.

On to `O=c1c(-c2ccc(O)cc2)coc2cc(O)cc(O)c12` [Genistein], for which the “Enzyme activity (inhibition/activation)” value in series [1] (setting [4]) is recorded as “inhibition”.

For `CC1(C)[C@@H](O)CC[C@]2(C)[C@H]3C(=O)C=C4[C@@H]5C[C@@](C)(C(=O)O)CC[C@]5(C)CC[C@@]4(C)[C@]3(C)CC[C@@H]12` [Glycyrrhetinic Acid], the “Enzyme activity (inhibition/activation)” value in series [1] (setting [4]) is given as “inhibition”. Take `OO` [Hydrogen peroxide]: the “Enzyme activity (inhibition/activation)” value in series [1] (setting [4]) was “activation”.

Regarding `CC(C)Cc1ccc(C(C)C(=O)O)cc1` (centres unmarked) [Ibuprofen], the “Enzyme activity (inhibition/activation)” value in series [1] (setting [4]) is given as “inhibition”. Consider `COc1ccc2c(c1)c(CC(=O)O)c(C)n2C(=O)c1ccc(Cl)cc1` [Indomethacin], for which, in series [1] (setting [4]), the “Enzyme activity (inhibition/activation)” value was “inhibition”.

With `O=c1c(O)c(-c2ccc(O)cc2)oc2cc(O)cc(O)c12` [Kaempferol], the “Enzyme activity (inhibition/activation)” value in series [1] (setting [4]) is listed as “inhibition”. For the compound `CC(C(=O)O)c1cccc(C(=O)c2ccccc2)c1` (centres unmarked) [Ketoprofen], the “Enzyme activity (inhibition/activation)” value in series [1] (setting [4]) is “inhibition”. For `O=C1C[C@@H](c2ccc(O[C@@H]3O[C@H](CO)[C@@H](O)[C@H](O)[C@H]3O)cc2)Oc2cc(O)ccc21` [Liquiritin], the “Enzyme activity (inhibition/activation)” value in series [1] (setting [4]) is reported as “inhibition”. For the same compound, the “kind of AKR1C1 inhibition” value in series [1] is “selective and potent AKR1C1 inhibitor”. In the case of `O=c1cc(-c2ccc(O)c(O)c2)oc2cc(O)cc(O)c12` [Luteolin], in series [1] (setting [4]), the “Enzyme activity (inhibition/activation)” value was “inhibition”. As to `Cc1ccc(Cl)c(Nc2ccccc2C(=O)O)c1Cl` [Meclofenamic Acid], the “Enzyme activity (inhibition/activation)” value in series [1] (setting [4]) was “inhibition”. Turning to `CN1CCN=C(c2ccccc2)c2cc(Cl)ccc21` [Medazepam], the “Enzyme activity (inhibition/activation)” value in series [1] (setting [4]) is recorded as “inhibition”. For the same compound, the “kind of AKR1C1 inhibition” value in series [1] was “non-competitive inhibitors”. As for `CC(=O)O[C@]1(C(C)=O)CC[C@H]2[C@@H]3C[C@H](C)C4=CC(=O)CC[C@]4(C)[C@H]3CC[C@@]21C` [Medroxyprogesterone Acetate], in series [1] (setting [4]), the “Enzyme activity (inhibition/activation)” value was “inhibition”. On to `CC/C=C\CC1C(=O)CCC1CC(=O)OC` (centres unmarked) [Methyl Jasmonate], for which the “Enzyme activity (inhibition/activation)” value in series [1] (setting [4]) is “inhibition”. Regarding `COc1ccc2cc([C@H](C)C(=O)O)ccc2c1` [Naproxen], the “Enzyme activity (inhibition/activation)” value in series [1] (setting [4]) was “inhibition”.

In the case of `O=C1C[C@@H](c2ccc(O)cc2)Oc2cc(O)cc(O)c21` [Naringenin], the “Enzyme activity (inhibition/activation)” value in series [1] (setting [4]) was “inhibition”. For `O=C1CN=C(c2ccccc2)c2cc([N+](=O)[O-])ccc2N1` [Nitrazepam], in series [1], the “Enzyme activity (inhibition/activation)” value is listed as “inhibition”. For the compound `C#C[C@]1(O)CC[C@H]2[C@@H]3CCC4=CC(=O)CC[C@@H]4[C@H]3CC[C@@]21C` [Norethindrone], in series [1] (setting [4]), the “Enzyme activity (inhibition/activation)” value is “inhibition”. For `CC1CN2CC(=O)Nc3ccc(Cl)cc3C2(c2ccccc2)O1` (centres unmarked) [Oxazolam], the “Enzyme activity (inhibition/activation)” value in series [1] (setting [4]) was “inhibition”. Consider `CC(=O)Nc1ccc(O)cc1` [Paracetamol], for which the “Enzyme activity (inhibition/activation)” value in series [1] (setting [4]) is “inhibition”. In the case of `O=c1c(O)c(-c2ccc(O)c(O)c2)oc2cc(O)cc(O)c12` [Quercetin], the “Enzyme activity (inhibition/activation)” value in series [1] (setting [4]) was “inhibition”.

Consider `Oc1ccc(C=Cc2cc(O)cc(O)c2)cc1` [Resveratrol], for which, in series [1] (setting [4]), the “Enzyme activity (inhibition/activation)” value is on record as “inhibition”. Take `CC1=C(CC(=O)O)c2cc(F)ccc2/C1=C\c1ccc([S+](C)[O-])cc1` (centres unmarked) [Sulindac]: the “Enzyme activity (inhibition/activation)” value in series [1] (setting [4]) was “inhibition”. In the case of `CC(C)(C)c1cc(O)ccc1O` [T-Butylhydroquinone], in series [1] (setting [4]), the “Enzyme activity (inhibition/activation)” value was “activation”.

As to `CC/C(=C(\c1ccccc1)c1ccc(OCCN(C)C)cc1)c1ccccc1` [Tamoxifen], the “Enzyme activity (inhibition/activation)” value in series [1] (setting [4]) is recorded as “inhibition”. `COc1c(O)cc(O)c2c(=O)cc(-c3ccccc3)oc12` [Wagonin]: the “Enzyme activity (inhibition/activation)” value in series [1] (setting [4]) was “inhibition”. For `C[C@H]1CCCC(=O)CCC/C=C/c2cc(O)cc(O)c2C(=O)O1` [Zearalenone], in series [1] (setting [4]), the “Enzyme activity (inhibition/activation)” value was “inhibition”. `Cc1cc(CC(=O)O)n(C)c1C(=O)c1ccc(Cl)cc1` [Zomepirac]: the “Enzyme activity (inhibition/activation)” value in series [1] (setting [4]) is on record as “inhibition”. Regarding NADP(H) [NADP(H) (NPD)], the Kd in series [2] is 100 nM. Sennosides: the “Activity (prostaglandin levels)” value in series [3] was “increase PGE2 formation”.
